Laboratory results taken from ChEMBL document CHEMBL4819004, “Discovery of selective CDK9 degraders with enhancing antiproliferative activity through PROTAC conversion” (Eur J Med Chem, 2021).
Active and inactive are the calls of the source. No cut-off for these calls is given here.

What was measured:
[1] = system: MV4-11; test: Induction of apoptosis in human MV4-11 cells assessed as viable cells at 1 nM after 6 hrs by AnnexinV-FITC/propidium iodide staining based flow cytometry (reference value: 90.1 %); format: functional; conditions: read-out: Activity
[2] = biological target: T1, Protein cereblon/Cyclin-dependent kinase 9 (Homo sapiens, UniProt P50750+Q96SW2); test: Protac activity at CRBN/CDK9 in human MOLM-13 cells assessed as CDK9 degradation rate at 500 nM incubated for 6 hrs by Western blot assay relative to control; format: cell-based
[3] = biological target: T1, Protein cereblon/Cyclin-dependent kinase 9; test: Protac activity at CRBN/CDK9 in human MV4-11 cells assessed as induction of CDK9 degradation at 250 nM pretreated for 2 hrs with E3 ligase cereblon ligand, pomalidomide followed by incubation with compound for 6 hrs by western blot analysis; format: cell-based
[4] = biological target: Protein cereblon/Cyclin-dependent kinase 1 (Homo sapiens) (UniProt P06493+Q96SW2); test: PROTAC activity at CRBN/CDK1 in human MV4-11 cells assessed as induction of CDK1 degradation at 31.25 to 500 nM measured after 3 hrs by western blot analysis; format: cell-based; conditions: dose 31.25-500 nM
[5] = biological target: T1, Protein cereblon/Cyclin-dependent kinase 9; test: Protac activity at CRBN/CDK9 in human MV4-11 cells assessed as induction of CDK9 degradation at 250 nM pretreated for 2 hrs with proteasome inhibitor, MG132 followed by incubation with compound for 6 hrs by western blot analysis; format: cell-based
[6] = system: A549; test: Antiproliferative activity against human A549 cells incubated for 72 hrs by MTT assay; format: functional, cell-based; conditions: A549, 72 h
[7] = system: MOLM-13; test: Antiproliferative activity against human MOLM-13 cells incubated for 72 hrs by MTT assay; format: functional, cell-based; conditions: MOLM-13, 72 h
[8] = biological target: T1, Protein cereblon/Cyclin-dependent kinase 9; test: Protac activity at CRBN/CDK9 in human MV4-11 cells assessed as CDK9 degradation rate at 500 nM incubated for 6 hrs by Western blot assay relative to control; format: cell-based
[9] = system: MV4-11; test: Induction of apoptosis in human MV4-11 cells assessed as viable cells at 30 nM after 6 hrs by AnnexinV-FITC/propidium iodide staining based flow cytometry (reference value: 90.1 %); format: functional; conditions: read-out: Activity
[10] = system: MV4-11; test: Antiproliferative activity against human MV4-11 cells incubated for 72 hrs by MTT assay; format: functional, cell-based; conditions: MV4-11, 72 h
[11] = biological target: T1, Protein cereblon/Cyclin-dependent kinase 9; test: Protac activity at CRBN/CDK9 in human MV4-11 cells assessed as induction of CDK9 degradation incubated for 6 hrs by Western blot assay; format: cell-based
[12] = system: MV4-11; test: Induction of apoptosis in human MV4-11 cells assessed as late apoptotic cells at 30 nM after 6 hrs by AnnexinV-FITC/propidium iodide staining based flow cytometry (reference value: 4.29%); format: functional
[13] = system: MV4-11; test: Induction of apoptosis in human MV4-11 cells assessed as late apoptotic cells at 250 nM after 6 hrs by AnnexinV-FITC/propidium iodide staining based flow cytometry (reference value: 4.29%); format: functional
[14] = system: B16; test: Antiproliferative activity against mouse B16 cells incubated for 72 hrs by MTT assay; format: functional, cell-based; conditions: B16, 72 h
[15] = biological target: T1, Protein cereblon/Cyclin-dependent kinase 9; test: Protac activity at CRBN/CDK9 in human MV4-11 cells assessed as induction of CDK9 degradation by measuring downregulation of MCL-1 protein expression level at 250 nM by western blot analysis; format: cell-based; conditions: time 1-12 hrs, TDE = time-dependent effect
[16] = system: MV4-11; test: Induction of apoptosis in human MV4-11 cells assessed as viable cells at 500 nM after 6 hrs by AnnexinV-FITC/propidium iodide staining based flow cytometry (reference value: 90.1 %); format: functional; conditions: read-out: Activity
[17] = system: MV4-11; test: Induction of apoptosis in human MV4-11 cells assessed as late apoptotic cells at 500 nM after 6 hrs by AnnexinV-FITC/propidium iodide staining based flow cytometry (reference value: 4.29%); format: functional
[18] = biological target: Protein cereblon/Cyclin-dependent kinase 2 (Homo sapiens) (UniProt P24941+Q96SW2); test: PROTAC activity at CRBN/CDK2 in human MV4-11 cells assessed as induction of CDK2 degradation at 31.25 to 500 nM measured after 3 hrs by western blot analysis; format: cell-based; conditions: dose 31.25-500 nM
[19] = biological target: CDK9/cyclin T1 (Homo sapiens, UniProt P50750); test: Inhibition of CDK9/cyclin T (unknown origin) using YSPTSPSYSPTSPSYSPTSPKKK or histone H1 as substrate incubated for 2 hrs in presence of [gamma-33P]ATP by radioactive filter binding assay; format: protein-complex assay
[20] = biological target: T1, Protein cereblon/Cyclin-dependent kinase 9; test: PROTAC activity at CRBN/CDK9 in human MV4-11 cells assessed as reduction in RNA PolII CTD phosphorylation at Ser5 residue measured after 6 hrs by western blot analysis; format: cell-based; conditions: dose 31.25-8000 nM
[21] = system: MV4-11; test: Induction of apoptosis in human MV4-11 cells assessed as early apoptotic cells at 250 nM after 6 hrs by AnnexinV-FITC/propidium iodide staining based flow cytometry (reference value: 5.36 %); format: functional
[22] = system: MV4-11; test: Induction of apoptosis in human MV4-11 cells assessed as total apoptotic cells at 250 nM after 6 hrs by AnnexinV-FITC/propidium iodide staining based flow cytometry (reference value: 9.75 %); format: functional
[23] = biological target: T1, Protein cereblon/Cyclin-dependent kinase 9; test: Protac activity at CRBN/CDK9 in human MV4-11 cells assessed as induction of CDK9 degradation by measuring downregulation of CDK9 expression level at 250 nM by western blot analysis; format: cell-based; conditions: time 1-12 hrs, TDE = time-dependent effect
[24] = system: MV4-11; test: Induction of apoptosis in human MV4-11 cells assessed as late apoptotic cells at 100 nM after 6 hrs by AnnexinV-FITC/propidium iodide staining based flow cytometry (reference value: 4.29%); format: functional
[25] = system: MV4-11; test: Induction of apoptosis in human MV4-11 cells assessed as total apoptotic cells at 100 nM after 6 hrs by AnnexinV-FITC/propidium iodide staining based flow cytometry (reference value: 9.75 %); format: functional
[26] = system: MV4-11; test: Induction of apoptosis in human MV4-11 cells assessed as necrotic cells at 1000 nM after 6 hrs by AnnexinV-FITC/propidium iodide staining based flow cytometry (reference value: 0.16 %); format: functional
[27] = biological target: T1, Protein cereblon/Cyclin-dependent kinase 9; test: Protac activity at CRBN/CDK9 in human MV4-11 cells assessed as induction of CDK9 degradation at 250 nM pretreated for 2 hrs with CDK9 inhibitor, […] followed by incubation with compound for 6 hrs by western blot analysis; format: cell-based

COc1cc(F)ccc1-c1ncnc(Nc2cccc(CS(C)(=O)=NC(=O)CCCCCCCC(=O)NCCNc3cccc4c3C(=O)N(C3CCC(=O)NC3=O)C4=O)c2)n1 (configuration not stated)
viability at 0.001 µM [1]: 79.1% | Activity [2]: 100% | Activity [3]: inactive | Activity [4]: inactive | Activity [5]: inactive | IC50 [6]: 1220 nM | IC50 [7]: 120 nM | Activity [8]: 100% | viability at 0.03 µM [9]: 77.6% | IC50 [10]: 25 nM | DC50 [11]: 7.62 nM | Activity [12]: 14.8% | Activity [13]: 14.3% | IC50 [14]: 1400 nM | Activity [15]: Tde | viability at 0.5 µM [16]: 31.3% | Activity [17]: 13.7% | Activity [18]: inactive | IC50 [19]: 8.68 nM | Activity [20]: Dose-Dependent Effect | Activity [21]: 45.1% | Activity [22]: 59.4% | Activity [23]: Tde | Activity [24]: 15.3% | Activity [25]: 26.8% | Activity [26]: 0.4% | Activity [27]: inactive
